According to patent publication US20230405084A1, “USE OF PHOSPHATIDYLSERINE IN PREPARATION OF DRUG FOR TREATING INFLAMMATORY BOWEL DISEASE” (JIANGSU TARGET BIOMEDICAL RESEARCH INSTITUTE CO., LTD., priority 2020, published 2023):
Numbering of substitutions follows the chain as printed.

Tests used:
[1] = molecular target: T1, Annexin A5-EGFP (wild-type Annexin A5 fused to EGFP) (Homo sapiens, UniProt P08758); assay: MST analysis of protein binding ability to PS (Annexin A5-EGFP); conditions: fitted binding curve (Fnorm), in the presence of Ca^2+, protein fixed, gradient dilution of PS, 5 min at room temperature
T1 construct: E. coli BL21(DE3), pET-28a/kanamycin vector
T1 sequence (P08758 1-320): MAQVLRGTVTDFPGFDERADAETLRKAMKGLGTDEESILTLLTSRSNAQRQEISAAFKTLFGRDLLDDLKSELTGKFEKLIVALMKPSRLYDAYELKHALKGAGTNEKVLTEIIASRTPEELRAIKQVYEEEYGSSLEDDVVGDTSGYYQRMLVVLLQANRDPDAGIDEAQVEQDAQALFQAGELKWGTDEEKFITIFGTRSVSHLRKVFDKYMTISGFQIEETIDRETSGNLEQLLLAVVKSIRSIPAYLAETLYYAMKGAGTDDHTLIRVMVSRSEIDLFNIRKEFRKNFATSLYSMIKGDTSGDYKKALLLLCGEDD
Protocol: (§1) 3.2.9 MST Analysis of Protein Binding Ability to PS
(§2) MST is based on the phenomenon of thermophoresis of biomolecules in capillaries, resulting in changes in the properties of biomolecules, which are manifested in changes in the fluorescence distribution of the reaction system, and the fluorescence changes reflect the affinity of biomolecular interactions.
(§3) The MST experiment was conducted as follows.
(§4) (1) Non-fluorescent ligand preparation: 20 μL of the highest concentration unmarked PS molecules was prepared. 16 PCR tubes were labeled. 10 μL of buffer was added to each of 15 PCR tubes. 10 μL from PCR tube #1 was transferred to PCR tube #2 and mixed thoroughly. 10 μL from PCR tube #2 was transferred to PCR tube #3 and mixed thoroughly. Repeat this step in all sample tubes. Finally, 10 μL from PCR tube #16 was taken out and discard.
(§5) (2) Fluorescent ligand preparation: The fluorescent ligand was diluted to 2 times the concentration to be tested, and 10 μL was added respectively to PCR tubes 1-16 in sequence using a clean pipette tip, starting from the low concentration PCR tube to the highest concentration PCR tube.
(§6) (3) Incubation: The reaction solutions of the above tubes were mixed thoroughly and incubated for 5 min at room temperature away from light. […]

[2] = molecular target: T2, Annexin A5m-EGFP (Annexin A5 variant Annexin A5m, R25A/K29S/R63S/D68A/E72Q/D144N/E228A/D303N, fused to EGFP) (Homo sapiens, UniProt P08758, D144N/D303N/D68A/E228A/E72Q/K29S/R25A/R63S); assay: MST analysis of protein binding ability to PS (Annexin A5m-EGFP); conditions: in the presence of Ca^2+, failed to be fitted into a binding curve, protein fixed, gradient dilution of PS, 5 min at room temperature
T2 construct: pET-28a, E. coli BL21(DE3)
T2 sequence (P08758 1-320 R25A/K29S/R63S/D68A/E72Q/D144N/E228A/D303N): T1 sequence (P08758 1-320) with R25A, K29S, R63S, D68A, E72Q, D144N, E228A, D303N
Protocol: as §1, §2, §3, §4, §5, §6

Kd [1]: 13.8 µM
Kd value [2]: no Kd value
Substance: phosphatidylserine [PS]
